{"source": "ChEMBL document CHEMBL3621171", "about": "“Synthesis and evaluation of 8,4'-dideshydroxy-leinamycin revealing new insights into the structure-activity relationship of the anticancer natural product leinamycin” (Bioorg Med Chem Lett, 2015)", "assay_type_in_all_cases": "functional, cell-based", "key": {"T47D": {"system": "T47D", "assay": "Cytotoxicity against human T47D cells after 4 days by MTT assay", "conditions": "96 h"}, "A-375": {"system": "A-375", "assay": "Cytotoxicity against human A375 cells after 4 days by MTT assay", "conditions": "A-375, 96 h"}, "[1]": {"assay": "Cytotoxicity against human SKBR cells after 4 days by MTT assay", "conditions": "96 h"}, "MDA-MB-231": {"system": "MDA-MB-231", "assay": "Cytotoxicity against human MDA-MB-231 cells after 4 days by MTT assay", "conditions": "MDA-MB-231, 96 h"}, "MCF7": {"system": "MCF7", "assay": "Cytotoxicity against human MCF7 cells after 4 days by MTT assay", "conditions": "MCF7, 96 h"}, "Raji": {"system": "Raji", "assay": "Cytotoxicity against human Raji cells after 4 days by MTT assay", "conditions": "96 h"}}}
{"smiles": "C/C1=C\\CC(=O)/C=C/C=C\\c2csc(n2)[C@@H](C)NC(=O)C[C@]2(CC1)[C@@H](C)C(=O)S[S+]2[O-]", "note": "(stereo not given in full)", "values": [{"measurement": "EC50", "setting": "T47D", "value": 196, "unit": "nM"}, {"measurement": "EC50", "setting": "A-375", "value": 12.5, "unit": "nM"}, {"measurement": "EC50", "setting": "[1]", "value": 251, "unit": "nM"}, {"measurement": "EC50", "setting": "MDA-MB-231", "value": 71.4, "unit": "nM"}, {"measurement": "EC50", "setting": "MCF7", "value": 275, "unit": "nM"}, {"measurement": "EC50", "setting": "Raji", "value": 8.21, "unit": "nM"}]}
{"smiles": "C/C1=C\\CC(=O)/C=C/C=C\\c2csc(n2)[C@@H](C)NC(=O)C[C@@]2(CC1)SSC(=O)[C@@H]2C", "values": [{"measurement": "EC50", "setting": "T47D", "value": "> 10000", "unit": "nM"}, {"measurement": "EC50", "setting": "A-375", "value": "> 10000", "unit": "nM"}, {"measurement": "EC50", "setting": "[1]", "value": "> 10000", "unit": "nM"}, {"measurement": "EC50", "setting": "MDA-MB-231", "value": "> 10000", "unit": "nM"}, {"measurement": "EC50", "setting": "MCF7", "value": "> 10000", "unit": "nM"}, {"measurement": "EC50", "setting": "Raji", "value": 48.7, "unit": "nM"}]}
{"smiles": "C/C1=C\\[C@@H](O)C(=O)/C=C/C=C\\c2csc(n2)[C@@H](C)NC(=O)C[C@@]2(CC1)[S+]([O-])SC(=O)[C@]2(C)O", "note": "(stereo not given in full) [LEINAMYCIN]", "values": [{"measurement": "EC50", "setting": "T47D", "value": 15.2, "unit": "nM"}, {"measurement": "EC50", "setting": "A-375", "value": 4.69, "unit": "nM"}, {"measurement": "EC50", "setting": "[1]", "value": 52.3, "unit": "nM"}, {"measurement": "EC50", "setting": "MDA-MB-231", "value": 8.99, "unit": "nM"}, {"measurement": "EC50", "setting": "MCF7", "value": 42.4, "unit": "nM"}, {"measurement": "EC50", "setting": "Raji", "value": 6.29, "unit": "nM"}]}
{"smiles": "C/C1=C\\CC(=O)/C=C/C=C\\c2csc(n2)[C@@H](C)NC(=O)C[C@@]2(CC1)SC(=O)[C@@H]2C", "values": [{"measurement": "EC50", "setting": "T47D", "value": "> 10000", "unit": "nM"}, {"measurement": "EC50", "setting": "A-375", "value": "> 10000", "unit": "nM"}, {"measurement": "EC50", "setting": "[1]", "value": 7370, "unit": "nM"}, {"measurement": "EC50", "setting": "MDA-MB-231", "value": 1950, "unit": "nM"}, {"measurement": "EC50", "setting": "MCF7", "value": 8560, "unit": "nM"}, {"measurement": "EC50", "setting": "Raji", "value": "> 10000", "unit": "nM"}]}
{"smiles": "C/C1=C\\CC(=O)/C=C/C=C\\c2csc(n2)[C@@H](C)NC(=O)C[C@@](S)([C@@H](C)C(=O)O)CC1", "values": [{"measurement": "EC50", "setting": "T47D", "value": "> 10000", "unit": "nM"}, {"measurement": "EC50", "setting": "A-375", "value": "> 10000", "unit": "nM"}, {"measurement": "EC50", "setting": "[1]", "value": "> 10000", "unit": "nM"}, {"measurement": "EC50", "setting": "MDA-MB-231", "value": "> 10000", "unit": "nM"}, {"measurement": "EC50", "setting": "MCF7", "value": "> 10000", "unit": "nM"}, {"measurement": "EC50", "setting": "Raji", "value": "> 10000", "unit": "nM"}]}
